From BigSolDB 2.1

CS(=O)(=O)c1ccc([C@@H](O)[C@@H](CF)NC(=O)C(Cl)Cl)cc1
solubility (mole fraction)
Settings	283.15 K	288.15 K	293.15 K	298.15 K	303.15 K	308.15 K	313.15 K	318.15 K	323.15 K
in 2-ethylhexanol	0.000183	0.000254	0.000319	0.000383	0.000521	0.000635	0.000813	0.00103	0.00129
in ethanol	0.00151	0.00196	0.00244	0.00309	0.00369	0.00461	0.00562	0.00702	0.00842
in isobutanol	0.000293	0.000385	0.000497	0.000613	0.000819	0.00104	0.00137	0.0017	0.00224
in isopentanol	0.000487	0.000586	0.000765	0.000959	0.00123	0.00149	0.00191	0.00238	0.00285
in isopropanol	0.00061	0.00076	0.00101	0.00133	0.00169	0.00218	0.00278	0.00363	0.00457
in n-butanol	0.000512	0.000648	0.000821	0.00112	0.0014	0.00183	0.00236	0.00302	0.00385
in n-propanol	0.000974	0.00125	0.00165	0.00215	0.00269	0.00359	0.00437	0.00563	0.00712
in propionic acid	0.00027	0.000347	0.000447	0.000562	0.00073	0.000961	0.00123	0.0016	0.00211
